Assay results published in patent US20020137929A1, “1 - (3-heterocyclylphenyl) isothiourea, -isourea, -guanidine and -amidine herbicidal agents” (Intellectual Property Department, BASF Aktiengesellschaft, priority 1998, published 2002).

Experiments:
[1] = tested on: CASOB (Sicklepod); experiment: Postemergence herbicidal evaluation; assay type: in vivo, Cassia obtusifolia; settings: postemergence
How it was run: (§1)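 Visual 0-9 injury score (stand, vigor, malformation, size, chlorosis, appearance vs untreated) taken four to five weeks post-spray, averaged across repeat tests. Test plants about two weeks old; foliar spray of acetone/water (1:1) with 0.5% surfactant delivering ~0.0156-0.500 kg active/ha.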

[2] = tested on: ECHORC (Watergrass (Calif.)); experiment: Postemergence weed control under flooded paddy conditions; assay type: in vivo, Echinochloa oryzoides; settings: postemergence weeds, 3-4 weeks after treatment
How it was run: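 Injury ratings (0–9 scale covering stand, vigor, malformation, size, chlorosis and overall appearance versus control) were made three to four weeks after treatment. Test material, about 0.0313 to 0.500 kg/ha a.i. in 50/50 v/v aqueous/acetone, was added to flood water 1.5 to 3 cm deep over 3 to 5 cm weeds and 1.5 to 2.5 leaf rice.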

[3] = tested on: AMBEL (Ragweed, Common); experiment: Preemergence herbicidal evaluation; assay type: in vivo, Ambrosia artemisifolia; settings: rated 4-5 weeks after treatment
How it was run: (§2)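 Scores use a 0–9 visual scale covering stand, vigor, malformation, size and chlorosis relative to controls, rated four to five weeks after treatment. Before emergence, soil-planted seeds were sprayed with compound in aqueous acetone at roughly 0.0156–0.500 kg/ha and held in the greenhouse.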

[4] = tested on: CYPIR (Rice Flatsedge); experiment: Preemergence weed control under flooded paddy conditions; assay type: in vivo, Cyperus iria; settings: rated 3-4 weeks after treatment
How it was run: (§3)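 Herbicidal effect is scored visually on a 0-9 scale against an untreated control, three to four weeks after compounds are pipetted into the flood water (1.5 to 3 cm deep) over seeds planted in silt loam at 0.5 cm depth. Rates: about 0.0313 to 0.500 kg/ha.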

[5] = tested on: GALAP (Galium); experiment: Postemergence herbicidal evaluation; assay type: in vivo, Galium aparine; settings: postemergence
How it was run: as §1

[6] = tested on: IPOHE (Morningglory, Ivyleaf); experiment: Preemergence herbicidal evaluation; assay type: in vivo, Ipomoea hederacea; settings: rated 4-5 weeks after treatment
How it was run: as §2

[7] = tested on: TRZAWR (Wheat, Winter, cv Riband); experiment: Preemergence herbicidal evaluation; assay type: in vivo, Triticum aestivum; settings: rated 4-5 weeks after treatment
How it was run: as §2

[8] = tested on: ZEAMX (Corn, Field); experiment: Preemergence herbicidal evaluation; assay type: in vivo, Zea mays; settings: rated 4-5 weeks after treatment
How it was run: as §2

[9] = tested on: ECHORC (Watergrass (Calif.)); experiment: Preemergence weed control under flooded paddy conditions; assay type: in vivo, Echinochloa oryzoides; settings: rated 3-4 weeks after treatment
How it was run: as §3

[10] = tested on: ORYSAT (Rice, Tebonnet); experiment: Preemergence herbicidal evaluation; assay type: in vivo, Oryza sativa, (L.) Tebonnet; settings: rated 4-5 weeks after treatment
How it was run: as §2

[11] = tested on: CHEAL (Lambsquarters, Common); experiment: Preemergence herbicidal evaluation; assay type: in vivo, Chenopodium album; settings: rated 4-5 weeks after treatment
How it was run: as §2

[12] = tested on: ZEAMX (Corn, Field); experiment: Postemergence herbicidal evaluation; assay type: in vivo, Zea mays; settings: postemergence
How it was run: as §1

[13] = tested on: CYPSE (Flatsedge); experiment: Preemergence weed control under flooded paddy conditions; assay type: in vivo, Cyperus serotinus; settings: rated 3-4 weeks after treatment
How it was run: as §3

CCOC(=O)CN1C(=O)C(Cc2ccccc2)SC1=Nc1cc(-n2c(=O)cc(C(F)(F)F)n(C)c2=O)c(F)cc1Cl (centres unmarked) [Compound 24, Ethyl 5-benzyl-2-{{2-chloro-5-[3,6-dihydro-3-methyl-2,6-dioxo-4-(trifluoromethyl)-1(2H)-pyrimidinyl]-4-fluorophenyl}imino}-4-oxo-3-thiazolidineacetate]
4.5: ZEAMX herbicidal rating ([12]; rate 0.0315 kg/ha)
0.0: CASOB herbicidal rating ([1]; rate 0.0158 kg/ha) | CASOB herbicidal rating ([1]; rate 0.0315 kg/ha) | CASOB herbicidal rating ([1]; rate 0.0630 kg/ha) | AMBEL preemergence herbicidal rating ([3]; rate 0.0625 kg/ha) | AMBEL preemergence herbicidal rating ([3]; rate 0.1250 kg/ha) | Herbicidal rating CYPIR ([4]; 0.0313 kg/ha) | Herbicidal rating CYPIR ([4]; 0.0625 kg/ha) | Herbicidal rating CYPIR ([4]; 0.1250 kg/ha) | Herbicidal rating CYPIR ([4]; 0.2500 kg/ha) | IPOHE preemergence herbicidal rating ([6]; rate 0.0625 kg/ha) | IPOHE preemergence herbicidal rating ([6]; rate 0.1250 kg/ha) | IPOHE preemergence herbicidal rating ([6]; rate 0.2500 kg/ha) | TRZAWR preemergence herbicidal rating ([7]; rate 0.0625 kg/ha) | TRZAWR preemergence herbicidal rating ([7]; rate 0.1250 kg/ha) | TRZAWR preemergence herbicidal rating ([7]; rate 0.2500 kg/ha) | ZEAMX preemergence herbicidal rating ([8]; rate 0.0625 kg/ha) | ZEAMX preemergence herbicidal rating ([8]; rate 0.1250 kg/ha) | ORYSAT preemergence herbicidal rating ([10]; rate 0.0625 kg/ha) | ORYSAT preemergence herbicidal rating ([10]; rate 0.1250 kg/ha) | ORYSAT preemergence herbicidal rating ([10]; rate 0.2500 kg/ha)
4.0: Herbicidal rating ECHORC ([2]; rate 0.0313 kg/ha) | GALAP herbicidal rating ([5]; rate 0.0315 kg/ha) | Herbicidal rating ECHORC ([9]; 0.0313 kg/ha) | ZEAMX herbicidal rating ([12]; rate 0.0158 kg/ha)
2.0: AMBEL preemergence herbicidal rating ([3]; rate 0.2500 kg/ha)
9.0: Herbicidal rating ECHORC ([2]; rate 0.0625 kg/ha) | Herbicidal rating ECHORC ([2]; rate 0.1250 kg/ha) | Herbicidal rating ECHORC ([2]; rate 0.2500 kg/ha) | Herbicidal rating ECHORC ([9]; 0.0625 kg/ha) | Herbicidal rating ECHORC ([9]; 0.1250 kg/ha) | Herbicidal rating ECHORC ([9]; 0.2500 kg/ha) | CHEAL preemergence herbicidal rating ([11]; rate 0.0625 kg/ha) | CHEAL preemergence herbicidal rating ([11]; rate 0.1250 kg/ha) | CHEAL preemergence herbicidal rating ([11]; rate 0.2500 kg/ha)
6.0: GALAP herbicidal rating ([5]; rate 0.0630 kg/ha)
5.5: ZEAMX herbicidal rating ([12]; rate 0.0630 kg/ha)
1.0: GALAP herbicidal rating ([5]; rate 0.0158 kg/ha) | ZEAMX preemergence herbicidal rating ([8]; rate 0.2500 kg/ha)

CC(C)COC(=O)CN1C(=O)CSC1=Nc1cc(-n2c(=O)cc(C(F)(F)F)n(C)c2=O)c(F)cc1Cl [Compound 121, Isobutyl 2-{{2-chloro-5-[3,6-dihydro-3-methyl-2,6-dioxo-4-(trifluoromethyl)-1(2H)-pyrimidinyl]-4-fluorophenyl}imino}-4-oxo-3-thiazolidineacetate]
1.0: Herbicidal rating CASOB ([1]; rate 0.0313 kg/ha)
3.0: Preemergence herbicidal rating AMBEL ([3]; rate 0.0625 kg/ha) | Herbicidal rating GALAP ([5]; rate 0.0625 kg/ha) | Preemergence herbicidal rating IPOHE ([6]; rate 0.0625 kg/ha) | Preemergence herbicidal rating TRZAWR ([7]; rate 0.0625 kg/ha)
5.0: herbicidal effect rating, CYPSE ([13]; 0.1250 kg/ha) | herbicidal effect rating, CYPSE ([13]; 0.2500 kg/ha) | herbicidal effect rating, ECHORC ([9]; 0.0625 kg/ha) | Preemergence herbicidal rating ORYSAT ([10]; rate 0.2500 kg/ha) | Herbicidal rating ZEAMX ([12]; rate 0.0156 kg/ha) | Herbicidal rating ZEAMX ([12]; rate 0.0313 kg/ha)
7.0: Herbicidal rating CASOB ([1]; rate 0.0625 kg/ha) | Preemergence herbicidal rating TRZAWR ([7]; rate 0.1250 kg/ha) | Preemergence herbicidal rating ZEAMX ([8]; rate 0.1250 kg/ha)
2.0: herbicidal effect rating, CYPSE ([13]; 0.0313 kg/ha) | Preemergence herbicidal rating AMBEL ([3]; rate 0.0313 kg/ha) | Preemergence herbicidal rating TRZAWR ([7]; rate 0.0313 kg/ha)
6.0: Preemergence herbicidal rating ZEAMX ([8]; rate 0.0625 kg/ha) | herbicidal effect rating, ECHORC ([9]; 0.1250 kg/ha) | herbicidal effect rating, ECHORC ([9]; 0.2500 kg/ha) | Herbicidal rating ZEAMX ([12]; rate 0.0625 kg/ha)
4.0: Preemergence herbicidal rating AMBEL ([3]; rate 0.1250 kg/ha) | herbicidal effect rating, CYPIR ([4]; 0.0313 kg/ha) | herbicidal effect rating, CYPIR ([4]; 0.0625 kg/ha) | Preemergence herbicidal rating IPOHE ([6]; rate 0.1250 kg/ha) | Preemergence herbicidal rating ZEAMX ([8]; rate 0.0313 kg/ha) | herbicidal effect rating, ECHORC ([9]; 0.0313 kg/ha) | Preemergence herbicidal rating ORYSAT ([10]; rate 0.1250 kg/ha)
0.0: Herbicidal rating CASOB ([1]; rate 0.0156 kg/ha) | Preemergence herbicidal rating AMBEL ([3]; rate 0.0156 kg/ha) | Herbicidal rating GALAP ([5]; rate 0.0156 kg/ha) | Herbicidal rating GALAP ([5]; rate 0.0313 kg/ha) | Preemergence herbicidal rating IPOHE ([6]; rate 0.0156 kg/ha) | Preemergence herbicidal rating IPOHE ([6]; rate 0.0313 kg/ha) | Preemergence herbicidal rating TRZAWR ([7]; rate 0.0156 kg/ha) | Preemergence herbicidal rating ZEAMX ([8]; rate 0.0156 kg/ha) | Preemergence herbicidal rating ORYSAT ([10]; rate 0.0156 kg/ha) | Preemergence herbicidal rating ORYSAT ([10]; rate 0.0313 kg/ha) | Preemergence herbicidal rating ORYSAT ([10]; rate 0.0625 kg/ha)
9.0: Preemergence herbicidal rating IPOHE ([6]; rate 0.2500 kg/ha) | Preemergence herbicidal rating CHEAL ([11]; rate 0.0156 kg/ha) | Preemergence herbicidal rating CHEAL ([11]; rate 0.0313 kg/ha) | Preemergence herbicidal rating CHEAL ([11]; rate 0.0625 kg/ha) | Preemergence herbicidal rating CHEAL ([11]; rate 0.1250 kg/ha) | Preemergence herbicidal rating CHEAL ([11]; rate 0.2500 kg/ha)
8.0: Preemergence herbicidal rating AMBEL ([3]; rate 0.2500 kg/ha) | herbicidal effect rating, CYPIR ([4]; 0.1250 kg/ha) | herbicidal effect rating, CYPIR ([4]; 0.2500 kg/ha) | Preemergence herbicidal rating TRZAWR ([7]; rate 0.2500 kg/ha) | Preemergence herbicidal rating ZEAMX ([8]; rate 0.2500 kg/ha)
